Results as given in US5691374A, “Diaryl-5-oxygenated-2-(5H) -furanones as COX-2 inhibitors” (Merck Frosst Canada Inc., priority 1995, dated 1997).

Key:
COX-2 = biological target: T1, COX-2 (Homo sapiens, UniProt P35354); assay: Human Whole Blood (HWB) Assay: COX-2 (LPS-induced PGE2 production); type: cell-based; conditions: LPS-induced PGE2, 24 hours at 37° C.
T1 construct: incubation of human whole blood with LPS (lipopolysaccharide), which induces COX-2; from tissue; host or cells: fresh heparinized human whole blood from male and female volunteers, LPS-stimulated for 24 hours
T1 sequence (P35354 18-604): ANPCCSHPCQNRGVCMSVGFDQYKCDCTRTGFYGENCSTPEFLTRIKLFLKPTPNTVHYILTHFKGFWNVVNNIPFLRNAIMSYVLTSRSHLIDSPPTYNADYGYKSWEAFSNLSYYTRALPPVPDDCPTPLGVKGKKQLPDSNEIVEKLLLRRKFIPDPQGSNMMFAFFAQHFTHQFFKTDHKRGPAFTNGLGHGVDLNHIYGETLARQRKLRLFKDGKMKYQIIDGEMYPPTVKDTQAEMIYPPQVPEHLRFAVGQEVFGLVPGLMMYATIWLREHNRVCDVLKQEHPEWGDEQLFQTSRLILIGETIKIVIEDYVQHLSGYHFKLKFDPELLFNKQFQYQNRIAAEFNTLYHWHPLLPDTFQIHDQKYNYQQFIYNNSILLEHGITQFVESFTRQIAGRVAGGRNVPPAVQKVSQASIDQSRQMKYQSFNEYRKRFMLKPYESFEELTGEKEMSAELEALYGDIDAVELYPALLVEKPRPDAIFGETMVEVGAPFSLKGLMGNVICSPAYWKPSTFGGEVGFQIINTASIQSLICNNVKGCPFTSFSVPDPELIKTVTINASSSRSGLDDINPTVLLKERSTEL
Protocol: Human Whole Blood (HWB) Assay Human whole blood provides a protein and cell-rich milieu appropriate for the study of biochemical efficacy of anti-inflammatory compounds such as selective COX-2 inhibitors. […] This is consistent with the observation that COX-2 inhibitors have no effect on PGE2 production in normal blood. These inhibitors are active only after incubation of human whole blood with LPS (lipopolysaccharide), which induces COX-2. This assay can be used to evaluate the inhibitory effect of selective COX-2 inhibitors on PGE2 production. As well, platelets in whole blood contain a large amount of the COX-1 enzyme. Immediately following blood clotting, platelets are activated through a thrombin-mediated mechanism. This reaction results in the production of thromboxane B2 (T×B2) via activation of COX-1. Thus, the effect of test compounds on T×B2 levels levels following blood clotting can be examined and used as an index for COX-1 activity. Therefore, the degree of selectivity by the test compound can be determined by measuring the levels of PGE2 after LPS induction (COX-2) and T×B2 following blood clotting (COX-1) in the same assay. A. COX-2 (LPS-induced PGE2 production) Fresh blood was collected in heparinized tubes by venipuncture from both male and female volunteers. The subjects had no apparent inflammatory conditions and had not taken any NSAIDs for at least 7 days prior to blood collection. Plasma was immediately obtained from a 2 mL blood aliquot to use as blank (basal levels of PGE2). The remaining blood was incubated with LPS ([…] final concentration, Sigma Chem, #L-2630 from E. coli; diluted in 0.1% BSA-Phosphate buffered saline) for […]. […] At the end of the incubation, the blood was centrifuged at 12,000×g for 5 minutes to obtain plasma. A […] aliquot of plasma was mixed with […] of methanol for protein precipitation. The supernatant was obtained and was assayed for PGE2 using a radioimmunoassay kit (Amersham, RPA#530) after conversion of PGE2 to its methyl oximate derivative according to the manufacturer's procedure. Compounds of the present invention are inhibitors of cyclooxygenase-2 and are thereby useful in the treatment of cyclooxygenase-2 mediated diseases as enumerated above. The activities of the compounds against cyclooxygenase may be seen in the representative results shown below. In the assay, inhibition is determined by measuring the amount of prostaglandin E2 (PGE2) synthesized in the presence of arachidonic acid, cyclooxygenase-1 or cyclooxygenase-2 and a putative inhibitor. The IC50 values represent the concentration of putative inhibitor required to return PGE2 synthesis to 50% of that obtained as compared to the uninhibited control.

Rat Paw Edema = Rat Paw Edema Assay; type: in vivo; conditions: male Sprague-Dawley rats, po 1 hr before carrageenan, paw volume increase 3 hr later
Protocol: Rat Paw Edema Assay-Protocol
Male Sprague-Dawley rats (150-200 g) were fasted overnight and were given po either vehicle (1% methocel or 5% Tween 80) or a test compound. One hr later, a line was drawn using a permanent marker at the level above the ankle in one hind paw to define the area of the paw to be monitored. The paw volume (V0) was measured using a plethysmometer (Ugo-Basile, Italy) based on the principle of water displacement. The animals were then injected subplantarly with […] of 1% carrageenan solution in saline (FMC Corp, Maine) into the paw using an insulin syringe with a 25-gauge needle (i.e. […] carrageenan per paw). Three hr later, the paw volume (V3) was measured and the increases in paw volume (V3 -V0) were calculated. The animals were sacrificed by CO2 aphyxiation and the absence or presence of stomach lesions scored. Data were compared with the vehicle-control values and percent inhibition calculated. Since a maximum of 60-70% inhibition (paw edema) was obtained with standard NSAIDs, ED50 values were used for comparison. All treatment groups were coded to eliminate observer bias.

COX-1 = biological target: T2, COX-1 (Homo sapiens, UniProt P23219); assay: Human Whole Blood (HWB) Assay: COX-1 (Clotting-induced TxB2 production); type: cell-based; conditions: clotting-induced TxB2, 1 hour at 37° C.
T2 construct: platelets in whole blood contain a large amount of the COX-1 enzyme; from tissue; host or cells: fresh human whole blood without anticoagulant, allowed to clot (platelets)
Protocol: Human Whole Blood (HWB) Assay
Human whole blood provides a protein and cell-rich milieu appropriate for the study of biochemical efficacy of anti-inflammatory compounds such as selective COX-2 inhibitors. […] This is consistent with the observation that COX-2 inhibitors have no effect on PGE2 production in normal blood. These inhibitors are active only after incubation of human whole blood with LPS (lipopolysaccharide), which induces COX-2. This assay can be used to evaluate the inhibitory effect of selective COX-2 inhibitors on PGE2 production. As well, platelets in whole blood contain a large amount of the COX-1 enzyme. Immediately following blood clotting, platelets are activated through a thrombin-mediated mechanism. This reaction results in the production of thromboxane B2 (T×B2) via activation of COX-1. […] Therefore, the degree of selectivity by the test compound can be determined by measuring the levels of PGE2 after LPS induction (COX-2) and T×B2 following blood clotting (COX-1) in the same assay. […]
Compounds of the present invention are inhibitors of cyclooxygenase-2 and are thereby useful in the treatment of cyclooxygenase-2 mediated diseases as enumerated above. […] In the assay, inhibition is determined by measuring the amount of prostaglandin E2 (PGE2) synthesized in the presence of arachidonic acid, cyclooxygenase-1 or cyclooxygenase-2 and a putative inhibitor. […]

T2 sequence (P23219 24-599): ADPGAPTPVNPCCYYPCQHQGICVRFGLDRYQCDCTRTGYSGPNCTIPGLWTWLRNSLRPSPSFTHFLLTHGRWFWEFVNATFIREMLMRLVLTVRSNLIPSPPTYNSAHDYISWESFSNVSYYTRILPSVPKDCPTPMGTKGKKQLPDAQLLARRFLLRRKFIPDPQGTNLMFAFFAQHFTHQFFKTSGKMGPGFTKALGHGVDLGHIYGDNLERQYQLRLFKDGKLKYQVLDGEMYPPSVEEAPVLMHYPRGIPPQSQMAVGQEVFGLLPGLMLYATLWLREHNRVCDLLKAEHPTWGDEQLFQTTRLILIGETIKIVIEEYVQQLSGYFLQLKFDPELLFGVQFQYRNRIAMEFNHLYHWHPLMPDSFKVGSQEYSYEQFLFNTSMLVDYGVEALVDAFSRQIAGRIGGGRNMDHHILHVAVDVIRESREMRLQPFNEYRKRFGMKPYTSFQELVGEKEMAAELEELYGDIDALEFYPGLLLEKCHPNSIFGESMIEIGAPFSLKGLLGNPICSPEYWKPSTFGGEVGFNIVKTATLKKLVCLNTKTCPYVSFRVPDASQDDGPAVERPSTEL

Row | SMILES | IC50 (COX-2) | ED50 (Rat Paw Edema) | IC50 (COX-1)
1 | CC1(O)OC(=O)C(c2ccccc2)=C1c1ccc(S(C)(=O)=O)cc1 (centres unmarked) [Example 4, 5-Hydroxy-5-methyl-4-(4-(methylsulfonyl)phenyl)-3-phenyl-2-(5H)-furanone] | 1270 nM | 1.53 mg/kg | –
2 | CC1(O)OC(=O)C(c2ccc(F)cc2)=C1c1ccc(S(C)(=O)=O)cc1 (centres unmarked) [Example 5, 3-(4-Fluorophenyl)-5-hydroxy-5-methyl-4-(4-(methylsulfonyl)phenyl)-2-(5H)-furanone] | 1410 nM | 1.84 mg/kg | –
3 | CC1(O)OC(=O)C(c2ccc(Cl)cc2)=C1c1ccc(S(C)(=O)=O)cc1 (centres unmarked) [Example 6, 3-(4-Chlorophenyl)-5-hydroxy-5-methyl-4-(4-(methylsulfonyl)phenyl)-2-(5H)-furanone] | 2420 nM | 1.41 mg/kg | –
4 | COC1(C)OC(=O)C(c2ccccc2)=C1c1ccc(S(C)(=O)=O)cc1 (centres unmarked) [Example 10, 5-Methoxy-5-methyl-4-(4-(methylsulfonyl)phenyl)-3-phenyl-2-(5H)-furanone] | < 370 nM | 1.94 mg/kg | –
5 | COC1(C)OC(=O)C(c2ccc(F)cc2)=C1c1ccc(S(C)(=O)=O)cc1 (centres unmarked) [Example 15, 3-(4-Fluorophenyl)-5-methoxy-5-methyl-4-(4-(methylsulfonyl)phenyl)-2-(5H)-furanone] | < 370 nM | 2.8 mg/kg | > 30000 nM
